Measured values: ChEMBL document CHEMBL1135517, “N(6)-alkyl-2-alkynyl derivatives of adenosine as potent and selective agonists at the human adenosine A(3) receptor and a starting point for searching A(2B) ligands” (J Med Chem, 2002)

Assays:
Adenosine receptor A1 = target: T1, Adenosine receptor A1 (Homo sapiens, UniProt P30542); experiment: Binding affinity against Human recombinant Adenosine A1 receptor stably transfected in CHO cells using [3H]CCPA as radioligand; assay type: cell-based
T1 sequence (P30542 whole entry): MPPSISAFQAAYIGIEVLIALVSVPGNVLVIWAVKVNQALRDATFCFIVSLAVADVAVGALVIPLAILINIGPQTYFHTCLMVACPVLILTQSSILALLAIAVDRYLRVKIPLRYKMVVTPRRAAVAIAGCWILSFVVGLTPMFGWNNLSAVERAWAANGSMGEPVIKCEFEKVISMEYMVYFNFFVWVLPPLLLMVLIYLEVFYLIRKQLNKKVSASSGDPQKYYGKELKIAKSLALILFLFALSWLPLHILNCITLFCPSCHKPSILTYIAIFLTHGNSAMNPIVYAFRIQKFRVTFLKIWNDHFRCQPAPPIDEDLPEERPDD

Adenosine receptor A2a = Adenosine receptor A2a (Homo sapiens, UniProt P29274); experiment: Binding affinity against Human recombinant Adenosine A2A receptor stably transfected in CHO cells using [3H]NECA as radioligand; assay type: cell-based
Adenosine receptor A2a, sequence (P29274 whole entry): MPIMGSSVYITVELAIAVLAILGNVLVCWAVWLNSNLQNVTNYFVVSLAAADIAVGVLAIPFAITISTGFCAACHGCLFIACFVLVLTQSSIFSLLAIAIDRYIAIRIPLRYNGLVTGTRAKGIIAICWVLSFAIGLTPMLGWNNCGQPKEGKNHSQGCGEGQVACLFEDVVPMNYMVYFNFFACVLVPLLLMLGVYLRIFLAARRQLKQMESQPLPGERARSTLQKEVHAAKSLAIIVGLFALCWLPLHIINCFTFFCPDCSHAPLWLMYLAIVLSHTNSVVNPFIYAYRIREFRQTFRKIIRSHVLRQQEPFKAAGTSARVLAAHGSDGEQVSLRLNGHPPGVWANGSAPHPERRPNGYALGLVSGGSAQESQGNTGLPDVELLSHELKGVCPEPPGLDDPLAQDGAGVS

Adenosine receptor A3 = target: T2, Adenosine receptor A3 (Homo sapiens, UniProt P0DMS8); experiment: Binding affinity against Human recombinant Adenosine A3 receptor stably transfected in CHO cells using [3H]NECA as radioligand; assay type: cell-based
T2 sequence (P0DMS8 whole entry): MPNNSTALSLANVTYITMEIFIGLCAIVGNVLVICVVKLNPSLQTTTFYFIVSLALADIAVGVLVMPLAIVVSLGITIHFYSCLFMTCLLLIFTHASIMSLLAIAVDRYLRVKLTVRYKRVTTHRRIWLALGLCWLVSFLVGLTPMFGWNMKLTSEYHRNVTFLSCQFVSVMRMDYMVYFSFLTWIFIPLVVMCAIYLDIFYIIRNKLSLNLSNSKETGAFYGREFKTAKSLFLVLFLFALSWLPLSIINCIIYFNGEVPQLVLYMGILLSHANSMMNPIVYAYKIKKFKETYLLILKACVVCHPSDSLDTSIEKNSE

Adenosine receptor A2b = target: T3, Adenosine receptor A2b (Homo sapiens, UniProt P29275); experiment: Receptor-stimulated activity in CHO cells stably transfected with Human recombinant Adenosine A2B receptor measuring adenylyl cyclase activity
T3 sequence (P29275 whole entry): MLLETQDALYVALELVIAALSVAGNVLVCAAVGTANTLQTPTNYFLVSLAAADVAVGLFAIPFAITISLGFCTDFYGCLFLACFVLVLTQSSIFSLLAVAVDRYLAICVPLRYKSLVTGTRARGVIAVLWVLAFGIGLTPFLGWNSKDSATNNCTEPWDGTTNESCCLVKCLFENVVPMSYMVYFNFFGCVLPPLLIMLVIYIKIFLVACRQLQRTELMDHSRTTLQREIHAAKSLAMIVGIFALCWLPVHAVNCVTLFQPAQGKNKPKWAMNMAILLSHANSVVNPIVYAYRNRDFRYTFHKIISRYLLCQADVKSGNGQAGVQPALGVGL

SMILES	Ki (Adenosine receptor A1) [nM]	Ki (Adenosine receptor A2a) [nM]	Ki (Adenosine receptor A3) [nM]	EC50 (Adenosine receptor A2b) [nM]
CNc1nc(C#C[C@@H](O)c2ccccc2)nc2c1ncn2[C@@H]1O[C@H](CO)[C@@H](O)[C@H]1O	9.6	163	0.53	2600
CCNc1nc(C#Cc2ccccc2)nc2c1ncn2C1O[C@H](CO)[C@@H](O)[C@H]1O (some centres not stated)	1180	4450	4.9	> 100000
CNc1nc(C#Cc2ccccc2)nc2c1ncn2[C@@H]1O[C@H](CO)[C@@H](O)[C@H]1O	1690	8530	3.4	100000
CCNC(=O)[C@H]1O[C@@H](n2cnc3c(N)nc(C#C[C@H](O)c4ccccc4)nc32)[C@H](O)[C@@H]1O	1.9	39	5.5	2400
CCCCC#Cc1nc(NC(C)C)c2ncn([C@@H]3O[C@H](CO)[C@@H](O)[C@H]3O)c2n1	43	196	9.7	100000
CC(C)Nc1nc(C#C[C@H](O)c2ccccc2)nc2c1ncn2[C@@H]1O[C@H](CO)[C@@H](O)[C@H]1O	1.1	324	4.9	8900
CCNC(=O)[C@H]1O[C@@H](n2cnc3c(N)nc(C#Cc4ccccc4)nc32)[C@H](O)[C@@H]1O	560	620	6.2	> 100000
CCCCC#Cc1nc(N)c2ncn([C@@H]3O[C@H](CO)[C@@H](O)[C@H]3O)c2n1			4.7	100000
CNc1nc(C#CC(O)c2ccccc2)nc2c1ncn2[C@@H]1O[C@H](CO)[C@@H](O)[C@H]1O (some centres not stated)	8.4	273	0.76	2700
CCNc1nc(C#C[C@H](O)c2ccccc2)nc2c1ncn2[C@@H]1O[C@H](CO)[C@@H](O)[C@H]1O	2.2	1180	1.4	9100
CC(C)Nc1nc(C#Cc2ccccc2)nc2c1ncn2[C@@H]1O[C@H](CO)[C@@H](O)[C@H]1O	429	1100	17	> 100000
Nc1nc(C#Cc2ccccc2)nc2c1ncn2[C@@H]1O[C@H](CO)[C@@H](O)[C@H]1O	391	363	16	> 100000
CCNC(=O)[C@H]1O[C@@H](n2cnc3c(N)nc(C#CC(O)c4ccccc4)nc32)[C@H](O)[C@@H]1O (mixture of isomers)	2.7	3.1	0.42	1100
CCNc1nc(C#C[C@@H](O)c2ccccc2)nc2c1ncn2[C@@H]1O[C@H](CO)[C@@H](O)[C@H]1O	3.4	64	0.2	730
CNc1nc(C#C[C@H](O)c2ccccc2)nc2c1ncn2[C@@H]1O[C@H](CO)[C@@H](O)[C@H]1O	7.1	1560	1.2	100000
CCNc1nc(C#CC(O)c2ccccc2)nc2c1ncn2[C@@H]1O[C@H](CO)[C@@H](O)[C@H]1O (some centres not stated)	2.7	94	0.97	1700
Nc1nc(C#CC(O)c2ccccc2)nc2c1ncn2[C@@H]1O[C@H](CO)[C@@H](O)[C@H]1O (some centres not stated)	0.67	7	3.3	2400
CC(C)Nc1nc(C#C[C@@H](O)c2ccccc2)nc2c1ncn2[C@@H]1O[C@H](CO)[C@@H](O)[C@H]1O	1.7	43	1.5	960
CC(C)(C)OC(=O)C1CCCN1C[C@@H](O)[C@H](Cc1ccccc1)NC(=O)[C@H](CC(N)=O)NC(=O)OCc1ccccc1 (some centres not stated)	60		2.4	6100
CC(C)Nc1nc(C#CC(O)c2ccccc2)nc2c1ncn2[C@@H]1O[C@H](CO)[C@@H](O)[C@H]1O (some centres not stated)	1.5	96	2.3	6100
CCCCC#Cc1nc(NC)c2ncn([C@@H]3O[C@H](CO)[C@@H](O)[C@H]3O)c2n1	327	1230	1.1	100000
CCNC(=O)[C@H]1O[C@@H](n2cnc3c(N)nc(C#C[C@@H](O)c4ccccc4)nc32)[C@H](O)[C@@H]1O	2.1	2	0.75	220
CCCCC#Cc1nc(NCC)c2ncn([C@@H]3O[C@H](CO)[C@@H](O)[C@H]3O)c2n1	138	267	2.3	100000
Nc1nc(C#C[C@H](O)c2ccccc2)nc2c1ncn2[C@@H]1O[C@H](CO)[C@@H](O)[C@H]1O	0.44	29	5	6200
Nc1nc(C#C[C@@H](O)c2ccccc2)nc2c1ncn2[C@@H]1O[C@H](CO)[C@@H](O)[C@H]1O	0.67	1.8	1.4	920
